# Test results taken from a melting point compilation (Tetko et al.; mined from patent text by program, amines drawn as free bases though some values may be those of a salt).
row,SMILES,melting point [°C]
1,O=C(O)C1=Nc2ccc3c(c2=C1)=CCO3,183 to 184
2,CCC(=O)NCCC1CCc2cc(F)c3c(c21)C=CCO3 (stereo unspecified),106 to 108
3,CC(C)S(=O)(=O)Nc1cc(C(=O)c2ccccc2)ccc1[N+](=O)[O-],115 to 116
4,CCOC(=O)COc1ccc(N)cc1Cl,59 to 62
5,COc1ccc(C(=O)OC2CCCC2)nc1Cl,90 to 92
6,COC(C)=CC(=O)Nc1cccc(NC(C)=O)c1,167
7,CSc1cccc(-c2ccccc2)c1S(N)(=O)=O,167 to 168
8,NCC(=O)N1c2ccccc2N(Cc2ccccc2)C(=O)[C@H]2CCC[C@H]21 (relative stereo),163 to 165
9,O=c1[nH]c2ccc(F)cc2c(=O)n1CCCN1CC=C(c2ccc(Cl)cc2)CC1,192 to 193
10,CCCC(=O)Nc1cscn1,63 to 66
11,CC(N)c1ccc2c(c1)C(c1ccccc1F)=NC(C)(C)C(=O)N2C (stereo unspecified),50 to 51
12,O=[N+]([O-])c1cccc2c1nc(-c1c(F)cccc1F)n2Cc1c(F)cccc1F,168 to 170
13,CN1C(=O)N(CCC(COc2ccc(-c3ccc(C#N)cc3)cc2)N(O)C=O)C(=O)C1(C)C (stereo unspecified),68 to 70
14,C#CCn1c(=O)oc2cc(Cl)c(-c3ccc(C(F)(F)F)n(C)c3=O)cc21,187 to 189
15,O=C1NC(=O)C(c2c[nH]c3ccccc23)=C1C(=O)c1cn2c3c(cccc13)CCC2,> 300
16,Cc1c(-c2ccc(F)cc2)nnn1CCC#Cc1ccccn1,130 to 131
17,"CCCOC(C)Cc1ccc(-c2ccc(O)cc2)cc1 (single isomer, unassigned; (-))",52 to 54
18,COc1cc(C)cc(OC)c1C1=NC(NC(=O)Nc2ccccc2Cl)C(=O)N(C)c2ccccc21 (stereo unspecified),260
19,CCOC(=O)Cc1ccccc1N(C(=O)CNC(=O)Nc1cccc(C)c1)c1ccccc1,120
20,Cc1c(S(=O)c2ccc([N+](=O)[O-])cc2)cc(C(C)(C)C)c(O)c1C(=O)O (stereo unspecified),201 to 202
21,O=C(O)CNC(=O)CBr,90 to 91
22,CCCCCCCCCCCc1nc(N)n[nH]1,128 to 132
23,CC1(c2ccccc2)CN(C(=O)Nc2ccc(Cl)cc2)N=C1c1ccc(Cl)cc1 (stereo unspecified),151 to 158
24,OC1CSC(Oc2ccc(-c3ccco3)nc2)C(O)C1O (stereo unspecified),146
25,O=C(O)C(Cc1ccc(Cl)cc1Cl)c1c(Cl)cccc1Cl (stereo unspecified),220 to 222

# Next, values leading:
row,melting point [°C],SMILES
1,77 to 78,CCOC(=O)C(C#N)(CCCN(C)CCc1ccc(OC)c(OC)c1)c1ccc(OC)c(OC)c1 (stereo unspecified)
2,235 to 237,C=CCc1c2c(cc3c(=O)cc(C(=O)O)oc13)CCCC2
3,128 to 130,CCOc1nn(-c2ccc(C(F)(F)F)cn2)cc1CCOc1cccc(CC(=O)O)c1
4,172 to 175,CC(C)(C)c1nc2cc(N3CCCCC3)c(N)cc2s1
5,165 to 167,Cc1nc2c(-c3cccc(N4CCOCC4)c3)cnn2c(N)c1-c1cccc(Cl)c1
6,92.1,COC(=O)Nc1ccc2ccccc2c1-c1c(P(c2ccccc2)c2ccccc2)ccc2ccccc12
7,211 to 213,Nc1nc(Cl)c(-c2ccc(Cl)cc2Cl)c(Cl)n1
8,164 to 166,COc1ccc(N2N=C(N)CC2c2ccccc2)cc1 (stereo unspecified)
9,146 to 147,NC(=O)N(O)CCNC(=O)c1cccc(Oc2ccc(Cl)cc2)c1
10,230,Nc1ccccc1NC(=O)c1ccc(CNc2c(NCc3cccnc3)c(=O)c2=O)cc1
11,150 to 151,COc1ccnc(CS(=O)c2nc3c(C(F)(F)F)cccc3[nH]2)c1 (stereo unspecified)
12,196 to 197,CCOC(=O)NC(=N)NCCSCc1[nH]cnc1C
13,117 to 120,CCOP(=O)(Cc1ccc(C(=O)O)cc1)OCC
14,123 to 124,C/C(=C(\C#N)C(N)=S)N1CCCN(c2ccccc2Cl)CC1
15,77 to 78,COc1cc(CCl)ccc1C12CC3CC(CC(C3)C1)C2
16,84 to 86,COc1ccc(CCN(C)C(=O)/C=C/c2cccnc2)cc1OC
